Test results from PubChem BioAssay AID1996.
In brackets after ≈: the same amount, converted by molar mass.

Conditions: buffer; pH 7.4; 200.0 µM

SMILES	solubility kinetic [µg/mL]
CCOc1ccc(NC(=O)C2C3CC/C=C\CCC32)cc1 (stereo not given)	< 0.6
O=C(Cc1cccs1)Nc1ccc(F)c(F)c1	20.9 (≈ 82.5 µM)
CC(NC(=O)CNC(=O)c1ccco1)c1ccccc1 (stereo not given)	> 40.8
COC(CNC(=O)c1cccnc1)OC	26.4 (≈ 126 µM)
Cc1ccc(S(=O)(=O)c2c[nH]c3ccc(Cl)cc3c2=O)cc1	< 0.7
COC(=O)c1cccc(NC(=O)CCNC(=O)c2ccco2)c1	> 47.4
CC(C)C(NC(=O)c1ccc([N+](=O)[O-])cc1Cl)C(=O)N1CCCC1 (stereo not given)	> 53.1
COc1ccc(/C=C2\SC(N)=NC2=O)cc1Cl	3.1 (≈ 11.5 µM)
Cc1ccc(NC(=O)C(c2ccccc2)N(C)C)cc1Cl (stereo not given)	28.3 (≈ 93.5 µM)
CC(=O)C1=C(O)C(=O)N(c2ccc(O)cc2)C1c1ccccc1 (stereo not given)	> 46.4
CCN(CC(=O)Nc1ccc2c(c1)OCCO2)C(=O)c1ccc(CS(C)(=O)=O)cc1	> 64.9
COc1cc(/C=C(/C#N)C(=O)NCCCc2ccccc2)ccc1OCC(=O)O	37.9 (≈ 96.1 µM)
COc1cccc(C(=O)Nc2cccc3cccnc23)c1OC	< 0.3
O=C(Cc1ccccc1)NCc1cccnc1	33.8 (≈ 149 µM)
Nc1nc(Nc2ccccc2)nc(NCCO)c1[N+](=O)[O-]	38 (≈ 131 µM)
Nc1ccc(S(=O)(=O)N2CCCC2)cc1Cl	> 39.1
COc1ccc(/C=C/C(=O)NCCc2nc3ccccc3[nH]2)cc1	9.9 (≈ 30.8 µM)
O=C(c1ccc(Cl)cc1)C1CCN(Cc2ccccc2)CC1	> 47.1
COC(=O)c1ccc(S(=O)(=O)N2CCN(CCO)CC2)n1C	45.6 (≈ 138 µM)
Nc1ccccc1C(=O)NC12CC3CC(CC(C3)C1)C2	28.7 (≈ 106 µM)
Cc1ccc(S(=O)(=O)N2CC(C)N(S(C)(=O)=O)C2)cc1 (stereo not given)	> 47.8
O=C(NC1CCCC1)C1CCN(c2cnccn2)CC1	> 41.2

SMILES	solubility kinetic [µg/mL]
Cc1nc(C)c(-c2ccnc(/N=C/NO)n2)s1	34 (≈ 136 µM)
COCCn1c(C)cc(C(=O)COC(=O)CNC(=O)c2ccco2)c1C	45.2 (≈ 125 µM)
CCOc1ccc(S(=O)(=O)NCc2cccnc2)c2ccccc12	38.5 (≈ 112 µM)
Cc1noc(NS(=O)(=O)c2ccc(NC(=O)c3ccccc3NS(=O)(=O)c3ccc(F)cc3)cc2)c1C	> 81.7
O=C(/C=C/c1ccccc1)Nc1ccc(NC(=O)c2cccs2)cc1	< 0.4
S=C(Nc1cccnc1)N1CCc2ccccc21	> 38.3
CCn1cc(C(=O)N2CCOCC2)c2ccccc21	> 38.7
Cc1ccc(S(=O)(=O)N2CCN(C(=O)C3CCCO3)CC2)cc1 (stereo not given)	49.8 (≈ 147 µM)
CCc1ccccc1NC(=O)CCS(=O)(=O)c1ccc(OC)cc1	26.4 (≈ 76 µM)
CC1(C)Cc2nc3sc(C(=O)NCCCO)c(N)c3cc2CO1	> 50.3
CCOC(=O)Cc1csc(NC(=O)c2cc(C)on2)n1	> 44.3
CCCc1cc(NCCCO)n2c(nc3ccccc32)c1C#N	3.3 (≈ 10.7 µM)
O=C(C[n+]1ccccc1)Nc1ccc(Cl)c([N+](=O)[O-])c1.[Cl-]	> 49.2
Cc1cc(NC(=O)C(C)Sc2nc(-c3ccccc3)cc(=O)[nH]2)no1 (stereo not given)	17.4 (≈ 48.8 µM)
CSc1ncc(C(=O)Nc2ccc(Br)cn2)c(C)n1	47 (≈ 139 µM)
COc1ccc(-c2nc(C=O)cs2)cc1	26.2 (≈ 119 µM)
COc1cc2c(cc1OC)-c1cc(Nc3ccccc3)nc(=O)n1CC2	7.5 (≈ 21.5 µM)
Cc1cc(C)cc(C(=O)NCCCN2CCOCC2)c1	> 41.5
Cc1c(C(=O)N(C)CCn2ccnc2C)oc2c(F)cccc12	38.1 (≈ 121 µM)
COCCN1CCn2c(nc3cc(NC(C)=O)ccc32)C1	36.4 (≈ 126 µM)
COc1ccc(/C=C2\SC(N)=NC2=O)cc1	3.9 (≈ 16.6 µM)
CCN(CC)c1cc(Cl)c2nonc2c1N	8.5 (≈ 35.3 µM)

SMILES	solubility kinetic [µg/mL]
CSc1ncccc1C(=O)Nc1cc(C)ccn1	> 38.9
CCN1CCc2nc(N)sc2C1	25.8 (≈ 141 µM)
Cn1cc(S(=O)(=O)N2CCCC2)cc1C(=O)O	> 38.7
CCCCCCCn1c(C)nnc1-c1cnn(C)c1N	> 41.5
CC1CN(CCc2ccccc2)C(C)C/C1=N/O (stereo not given)	32 (≈ 130 µM)
CCN(CC)c1ccc(CNc2nc3ccccc3n2C(C)C)cc1	0.3 (≈ 0.892 µM)
Cc1ccc(OCC(=O)Nc2cc(C)on2)c([N+](=O)[O-])n1	18 (≈ 61.6 µM)
CCC(C)(CCNC(=O)Cc1ccccc1)c1ccccc1OC (stereo not given)	15 (≈ 46.1 µM)
Cc1cccc(NC(=O)Cc2ccc(Br)cc2)n1	38.6 (≈ 126 µM)
CCc1cc2c3c(c1)C(C)CC(C)(C)N3C(=O)/C2=C1\SC(=O)NC1=O (stereo not given)	1.1 (≈ 3.09 µM)
CCN1CCN(C(=O)/C=C/c2cccc(Cl)c2)CC1	40 (≈ 143 µM)
CN(c1ccc(OCCOc2ccccc2Cl)cc1)S(=O)(=O)c1ccccc1	6.2 (≈ 14.8 µM)
CN(C(=O)/C=C/c1ccco1)c1ccccc1C(=O)O	> 40.7
CC(C)(C)c1ccc(Oc2ncccc2NC(=O)c2cccs2)cc1	< 0.4
Cc1ccccc1OCC(=O)NC(C)c1ccccc1 (stereo not given)	39.8 (≈ 148 µM)
Cc1noc(C)c1C(=O)OCC(=O)Nc1ncc(C(F)(F)F)cc1Cl	16.8 (≈ 44.5 µM)
COc1ccc(CNC(=O)CN(c2ccccc2OC)S(=O)(=O)c2cccs2)cc1	10.7 (≈ 24 µM)
O=C(NCC(=O)N1CCN(c2ccccc2)CC1)c1ccccc1	> 48.5
COc1ccccc1NC(=O)N1CCCC1C(=O)NCc1cccs1 (stereo not given)	> 53.9
O=C(Nc1ccc(Cl)cc1)c1cncs1	> 35.8

Results, then the compound that gave them:

solubility kinetic [µg/mL]	SMILES
> 42.7	O=C(NCCN1CCCCC1)c1ccc(F)cc1Cl
45.6 (≈ 142 µM)	Cc1cccn2cc(CCNS(=O)(=O)c3cccs3)nc12
> 45.1	O=C(Nc1cccc(F)c1)C1CCCN(c2cnccn2)C1 (stereo not given)
> 46.4	Cc1nn(C)cc1S(=O)(=O)NCc1ccc2c(c1)OCO2
33.8 (≈ 109 µM)	NC(=O)Cn1c(=O)n(Cc2ccccc2)c(=O)c2cccnc21
> 42.1	O=C(NCc1ccco1)c1ccc(Cl)cc1[N+](=O)[O-]
> 41.7	CN(CC(=O)Nc1ccc(F)cc1)C(=O)C1CCCC1
> 80	CCOc1cc(N2CCOCC2)c(OCC)cc1NC(=O)c1cc(S(=O)(=O)N2CCOCC2)ccc1C
1.4 (≈ 5.28 µM)	Cc1cc(C)cc(C(=O)Nc2nc3ccccc3[nH]2)c1
42.5 (≈ 117 µM)	CC(=O)NS(=O)(=O)c1ccc(NC(=O)CSc2ccccc2)cc1
33.3 (≈ 118 µM)	O=C(O)C1CCN(S(=O)(=O)Cc2ccccc2)CC1
> 45.7	O=C(NCC1CCCO1)c1cc(C(=O)C2CCCCC2)c[nH]1 (stereo not given)
0.3 (≈ 0.812 µM)	Cc1ccc(C(=O)N2CCN=C2SCc2ccc([N+](=O)[O-])cc2)cc1C
43.3 (≈ 136 µM)	CCN(CC(=O)Nc1ccc(C(=O)OC)cc1)C1CCCCC1
46.2 (≈ 127 µM)	CCCCC1C2C(=O)N(c3ccc(C)cc3)C(=O)C2ON1c1ccccc1 (stereo not given)
> 48.2	CCOC(=O)Cn1ccc(NC(=O)COc2ccc(F)cc2)n1
0.2 (≈ 0.655 µM)	COC(=O)Cn1c2nc3ccccc3nc2c2cccc(C)c21
3.3 (≈ 10 µM)	Cc1nc([N+](=O)[O-])cn1CC(=O)c1ccc(OC(F)(F)F)cc1
> 59.4	COc1ccc(Oc2cccc(Cl)c2CNC(=O)CSCC(=O)O)cc1

solubility kinetic [µg/mL]	SMILES
> 34.1	COCCCN1C(=O)CC(C(=O)OC)=C1C
44.4 (≈ 139 µM)	CCOC(=O)CC1C(=O)NCCN1C(=O)c1cccc(OC)c1 (stereo not given)
0.7 (≈ 3.08 µM)	Cc1ccccc1NC(=O)Nc1ccccn1
39.4 (≈ 143 µM)	CC1CCC/C(=C\Nc2ccc(C(=O)O)c(O)c2)C1=O (stereo not given)
6.6 (≈ 20 µM)	COc1ccc2c(C)cc(SCC(=O)NC3CCCC3)nc2c1
> 50.8	NC(=O)COC(=O)c1ccc(S(=O)(=O)NCc2ccco2)cc1
6.3 (≈ 19.3 µM)	CN1C(=O)c2ccc(NC(=O)CSc3ccccc3)cc2C1=O
44.8 (≈ 145 µM)	NS(=O)(=O)c1cc([N+](=O)[O-])ccc1NCc1cccnc1
< 0.6	Cc1ccc(Cl)c(N/C=C/C(=O)c2ccccc2)c1
> 66.7	CC1Cc2ccccc2N1S(=O)(=O)c1cccc(C(=O)OCC(=O)N2CCOCC2)c1 (stereo not given)
> 46.4	O=P(c1ccccc1)(c1ccccc1)C(O)c1ccccn1 (stereo not given)
48.6 (≈ 136 µM)	CC(C)CC1(C)NC(=O)N(CC(=O)Nc2ccc(F)c(F)c2F)C1=O (stereo not given)
> 37.5	Cc1cc(NC(=O)COC(=O)c2ccco2)no1
20.8 (≈ 63.5 µM)	CCNc1nc2c(c(=O)[nH]c(=O)n2C)n1CCCc1ccccc1
39	Br.N=C1CCCN1CC(=O)c1cccs1
19.5 (≈ 58.8 µM)	CCOC(=O)N1CCN(C(=O)c2cc3ccc(OC)cc3[nH]2)CC1
24.2 (≈ 114 µM)	Cc1cc2nc3c(nc2cc1C)CCCC3
> 49.9	CCOC(=O)C1CCN(CCC(=O)Nc2cc(C)ccc2C)CC1
< 0.2	COc1ccc(-c2cc(C(=O)Nc3cc(C)on3)no2)cc1OC

solubility kinetic [µg/mL]	SMILES
25.8 (≈ 105 µM)	Cc1cccc(NC(=O)CN2CCCCCC2)c1
> 41	Cc1ccccc1OCC(=O)OCC(=O)c1ccc[nH]1
> 34.2	CCOC(Cn1ccc(=O)[nH]c1=O)OCC
> 31.8	CC1NC(=S)N(C2CCCCC2)C1=O (stereo not given)
> 41.7	CC(C)Cn1c(=S)[nH]c2cc(C(=O)O)ccc2c1=O
3.6 (≈ 12.2 µM)	COc1ccc(NC(=O)c2ccc3[nH]c(C)c(C)c3c2)cc1
0.9 (≈ 3.07 µM)	Cc1ccc(C)c(C(=O)CN2C(=O)c3ccccc3C2=O)c1
8.6 (≈ 24.8 µM)	Cc1cccc(NC(=O)CNC(=O)c2cccc(-n3cccc3)c2)c1C
2 (≈ 6.8 µM)	Cc1ccc(NC(=O)CN2C(=O)c3ccccc3C2=O)cc1
> 40.8	O=[N+]([O-])c1ccc(Nc2ccccc2O)c2nonc12
> 48.5	CNC(=O)CN1C(=O)NC(c2ccccc2)(c2ccccc2)C1=O
1.4 (≈ 4.77 µM)	O=C1/C(=C/Nc2ccc3c(c2)OCO3)CCc2ccccc21
38.6 (≈ 123 µM)	COc1ccc2c(c1)c1ncn(CC3CCCO3)c(=O)c1n2C (stereo not given)
< 0.2	Cc1ccc(Nc2nc(-c3ccc(F)cc3)cs2)nc1
59.3	CC(C)(C)[C@]1(O)CCN2C[C@H]3c4ccccc4CCc4cccc(c43)[C@@H]2C1.Cl
39.8 (≈ 127 µM)	NC(=O)C1CCN(S(=O)(=O)c2ccccc2[N+](=O)[O-])CC1
> 49.5	Cl.Clc1ccc(CNCCCSc2ncccn2)cc1
35.2 (≈ 146 µM)	O=C(NCCCN1CCCC1=O)C1CCCO1 (stereo not given)
